Test results published in paper PMC5962729 (Frontiers in Pharmacology, 2018).
Where two headings read alike, the source gives them in different places.

Assays:
[1] = Pharmacokinetic study of YCHD components and phase II metabolites in normal rats (UHPLC-MS/MS, sulfatase enzymolysis); type: in vivo, rat; conditions: for Tmax / Vd/F / half-life / Cmax / CL/F / MRT inf: rat; for Vd/F: read-out: Vz/F; for half-life: read-out: t1/2z; for CL/F: read-out: CLz/F; for MRT inf: read-out: MRT (0-∞) (converted)
Method: To explore the pharmacokinetic properties of YCHD following intragastric administration in rats, a rapid and sensitive method involving the use of UHPLC-MS/MS (Agilent 6460 series, Agilent Technologies, Santa Clara, CA, United States) was developed and validated for the simultaneous quantification of 10 active components of rat plasma. The quantification was conducted in ESI negative ionization mode, and the mass spectrometry conditions were as follows: capillary voltage, 3500 V; gas flow, 12 L/min; nebulizer, 40 psi; gas temperature, 350°C; and delta EMV (-), 400. A 5 μL extraction sample was injected into the column (Agilent SB-C18 column, 2.1 mm × 50 mm, 1.8 μm) and eluted at 0.4 mL/min with a gradient elution of water (with 0.4% v/v formic acid) (A) and acetonitrile (B) (0–3 min, 5–60% B; 3–5 min, 60–90% B; 5–5.1 min, 90–5% B; and re-equilibration for 3 min).
To each 50 μL plasma sample, 10 μL of internal standard solution (paeoniflorin, 1000 ng/mL) and 300 μL of a mixed solution of methanol and acetonitrile (v/v, 1:1; containing 1% formic acid) were added. Subsequently, the solution was vortex mixed for 5 min. After centrifugation at 15,000 rpm for 5 min, the supernatant was transferred completely into a tube, before being evaporated under N2 at 40°C. The residue was then dissolved in 50 μL of 50% methanol–water (v/v, 1:1) through vortexing for 5 min, after centrifugation at 15,000 rpm for 10 min. Finally, 5 μL of the supernatant sample was injected into the UHPLC-MS/MS system for analysis.
The rats were randomly divided into two groups (n = 5 for each group). […] After 24 h, the two groups of rats received a single oral dose of YCHD (12 g/kg). Blood was collected in heparinized tubes at 5, 15, 30, 45, 60, 120, 240, 360, 480, 720, and 1440 min after administration. The blood samples were centrifuged at 4000 rpm for 10 min, and the supernatant plasma was harvested. Plasma samples (50 μL) were immediately processed as outlined in Section “Chromatographic and Mass Spectrometry Conditions.”
Additional plasma samples (50 μL) were enzymatically hydrolyzed with 50 μL of enzyme solution (65.86 mg of sulfatase, dissolved in 2 mL of sodium acetate buffer, pH 5.0) for phase II metabolite quantification, in accordance with our previous study ([Ding et al., 2012]). After being vortex mixed for 5 min, the mixture was incubated at 37°C for 30 min and then returned to room temperature. Subsequently, the samples were processed as outlined in Section “Chromatographic and Mass Spectrometry Conditions” for UHPLC-MS/MS analysis. During routine analysis, each analytical run included six blank plasma samples, a set of calibration samples, a set of QC samples, and unknowns.
All data are presented as mean ± SD. A one-way analysis of variance was used to compare data between two groups using SPSS (Version 21.0). The differences were considered to be statistically significant when p < 0.05 and highly significant when p < 0.01 or p < 0.001. Pharmacokinetic data analysis was performed using DAS 2.1.1 software (Mathematical Pharmacology Professional Committee of China, Shanghai, China).
After sulfatase-aided enzymolysis, all the phase II metabolites could transform into their prototypes, including rhein, emodin, genipin, and capillarisin. The specific contents of the phase II metabolites of these components were detected indirectly by evaluating the content difference of their prototypes in samples after enzymolysis and before enzymolysis
CG = Ca −[MG × (CGG/MGG + CGe/MGe)]
Ca, CGG, and CGe represent the concentration of genipin, genipin-1-β-D-gentiobioside, and geniposide after enzymolysis of sulfatase, respectively. MG, MGG-, and MGe represent the mass of genipin, genipin-1-β-D-gentiobioside, and geniposide, respectively. The pharmacokinetic curves of phase II metabolites are illustrated in Figure 4B.

[2] = system: ANIT-induced cholestatic liver injury; assay: Serum biochemistry (ALT, AST, TBIL, DBIL, TBA) in ANIT-induced cholestatic liver injury; type: in vivo, rat
Method: (§1) Ltd. (Shanghai, China) and fed in the Laboratory Animal Center of Shanghai University of Traditional Chinese Medicine. […] The rats were randomly divided into six groups (n = 5 for each group). […] [Cao et al., 2017]). […] Before and 24 h after modeling, retro-orbital blood samples were collected in a coagulation tube, and they were then centrifuged at 4°C for 10 min (4000 rpm) to obtain the serum for the assay of ALT, AST, TBIL, DBIL, and TBA. At the end of the experiment, all rats were euthanized by CO2 inhalation. The serum samples were stored at -70°C until analysis, and liver samples were isolated and stored at -70°C for further analysis, whereas the central part of the right large lobe of the liver was used for histological examination.  FIGURE 2 The scheme of the animal experimental design. […] UDCA, positive control group treated with ursodeoxycholic acid (UDCA) (100 mg/kg, […].); […] A closed IV catheter system (Becton Dickinson, United States) was applied to cannulate the bile duct, and the bile specimens were collected into tubes at 2 h intervals for 6 h. The collected serum samples were maintained at room temperature to dissolve. The serum levels of ALT, AST, TBIL, DBIL, and TBA were then determined using a chemistry analyzer system (HITACHI 7080, Japan).

[3] = system: ANIT-induced intrahepatic cholestasis; assay: Bile flow rate in ANIT-induced cholestatic rats; type: in vivo, rat; conditions: UDCA 100 mg/kg i.g. + ANIT 50 mg/kg; over 360 min at 48 h after ANIT; not significant vs model
Method: as §1

MRP2 = assay: Expression level of MRP2 in rat liver by UHPLC-MS/MS; type: in vivo
Method: Male Sprague Dawley rats (230 ± 20 g, 6–8 weeks of age) were purchased from B&K Laboratory Animal, Corp. Ltd. (Shanghai, China) and fed in the Laboratory Animal Center of Shanghai University of Traditional Chinese Medicine. All rats were allowed to acclimatize for 3 days before experimentation. The rats were randomly divided into six groups (n = 5 for each group). […] The rats in groups 4, 5, and 6 were intragastrically administered YCHD every 24 h for 10 consecutive days. The rats in group 3 were orally administered UDCA at a dose of 100 mg/kg every 24 h for 10 consecutive days, which is well-documented to treat induced liver injury and cholestasis ([Chen et al., 2016]; [Cao et al., 2017]). Moreover, groups 1 and 2 were intragastrically treated with physiological saline (0.9%) at a dose of 1 mL/100 g. […] At the end of the experiment, all rats were euthanized by CO2 inhalation. The serum samples were stored at -70°C until analysis, and liver samples were isolated and stored at -70°C for further analysis, whereas the central part of the right large lobe of the liver was used for histological examination. […]
Total membrane protein was isolated (in triplicate) from liver tissue according to the Native Membrane Protein Extraction Kit protocol. Subsequently, protein concentrations were determined by applying the BCA Protein Assay Kit. […]

[4] = Control group (normal rats), single oral YCHD 12 g/kg, plasma
[5] = Sprague Dawley, plasma, po, 12 g/kg, in normal and cholestatic rats after oral administration of YCHD
[6] = Sprague Dawley, Control group (normal rats), single oral YCHD 12 g/kg, plasma
[7] = plasma, po, 12 g/kg, Control group (normal rats), single oral YCHD 12 g/kg, plasma
[8] = Sprague Dawley, in vivo, Control group (normal rats), single oral YCHD 12 g/kg, plasma
[9] = in vivo, Control group (normal rats), single oral YCHD 12 g/kg, plasma
[10] = UDCA 100 mg/kg i.g. daily 10 days, ANIT 50 mg/kg on day 8, serum

## COC(=O)C1=CO[C@@H](O[C@@H]2O[C@H](CO[C@@H]3O[C@H](CO)[C@@H](O)[C@H](O)[C@H]3O)[C@@H](O)[C@H](O)[C@H]2O)[C@@H]2C(CO)=CC[C@H]12 [genipin-1-β-D-gentiobiodide, Genipin-1-β-D-gentiobiodide]
[1]; [4]
  AUC(0-∞): 38557.0 ± 20175.1 µg·min/L
  Ka: 95.5 ± 16.2 min⁻¹
  Cmax: 106 ± 3.9 ng/mL
  CL/F: 1040 ± 56 mL/min/kg
  MRT inf: 2.13 h
[1]; [5]
  Tmax: ≤ 0.45 h
[1]; [6]
  Vd/F: 170 ± 52.3 L/kg
  half-life: 1.93 ± 0.538 h
[1]; [7]
  Tmax: 0.35 h

## COC(=O)C1=COC(OC2OC(CO)C(O)C(O)C2O)C2C(CO)=CC(O)C12 (stereo not drawn) [Scandoside methyl ester]
[1]; [4]
  AUC(0-∞): 233687.2 ± 127559.1 µg·min/L
  Ka: 477.5 ± 133.9 min⁻¹
[1]; [8]
  Cmax: 127 ± 8.9 ng/mL
  Tmax: 0.35 h
  CL/F: 184 ± 33 mL/min/kg
  MRT inf: 6.08 h
[1]; [9]
  Vd/F: 62 ± 30.8 L/kg
  half-life: 3.82 ± 1.76 h

## O=C(O)C1=CO[C@@H](O[C@@H]2O[C@H](CO)[C@@H](O)[C@H](O)[C@H]2O)[C@@H]2C(CO)=CC[C@H]12 [Geniposidic acid]
[1]; [4]
  AUC(0-∞): 1374849.8 ± 734718.1 µg·min/L
  Ka: 11255.3 ± 11024.4 min⁻¹
  Cmax: 449 ± 34.2 ng/mL
  CL/F: 30 ± 4 mL/min/kg
  MRT inf: 5.93 h
[1]; [6]
  Vd/F: 8.6 ± 3.2 L/kg
  half-life: 3.23 ± 0.755 h
[1]; [9]
  Tmax: 4.4 h

## O=C(O)c1cc(O)c2c(c1)C(=O)c1cccc(O)c1C2=O [Rhein]
[1]; [4]
  AUC(0-∞): 874792.3 ± 503744.0 µg·min/L
  Ka: 4443.6 ± 454.1 min⁻¹
  Cmax: 3040 ± 397 ng/mL
  CL/F: 41 ± 6 mL/min/kg
  MRT inf: 2.01 h
  Vd/F: 3.79 ± 0.53 L/kg
  half-life: 1.06 ± 0.00833 h
[1]; [5]
  Tmax: ≤ 0.45 h
[1]; [7]
  Tmax: 0.25 h

## C[C@H](CCC(=O)O)[C@H]1CC[C@H]2[C@@H]3[C@@H](O)C[C@@H]4C[C@H](O)CC[C@]4(C)[C@H]3CC[C@]12C [UDCA, Ursodeoxycholic acid]
[2]; [10]
  ALT: 400.6±200.0 IU/L
  AST: 611.8±257.2 IU/L
  DBIL: 21.2 ± 9.0 µmol/L
  TBA: 428.1 ± 55.9 µmol/L
  TBIL: 28.2 ± 19.0 µmol/L
[2]; UDCA 100 mg/kg, ANIT-treated rats, p < 0.001
  serum TBA decreased to (printed), compared with the control group (printed): 30.9%
[2]; UDCA 100 mg/kg, ANIT-treated rats, p < 0.01
  serum DBIL decreased to (printed), compared with the control group (printed): 40.9%
[3]
  bile flow rate: 0.29 ± 0.12 μL/min⋅100 g B.W.
MRP2; UDCA group, ANIT-treated rats, mean ± S.D.
  Mrp2 expression level in rat liver: 2.21±0.87 fmol/μg protein
MRP2; UDCA-treated cholestatic rats, liver, not statistically significant
  MRP2 expression upregulated, fold: 1.5 fold

## CC(=O)c1ccc(O)cc1 [4-hydroxyacetophenone, 4-Hydroxyacetophenone]
[1]; [4]
  AUC(0-∞): 192358.2 ± 102858.3 µg·min/L
  Ka: 406.1 ± 333.9 min⁻¹
  Cmax: 1580 ± 133 ng/mL
  MRT inf: 4.82 h
  half-life: 13.8 ± 13.6 h
[1]; [5]
  Tmax: ≤ 0.45 h
[1]; [7]
  Tmax: 0.25 h

## COC(=O)C1=CO[C@@H](O[C@@H]2O[C@H](CO)[C@@H](O)[C@H](O)[C@H]2O)[C@@H]2C(CO)=CC[C@H]12 [Geniposide]
[1]; [4]
  AUC(0-∞): 384279.8 ± 184237.0 µg·min/L
  Ka: 702.9 ± 413.6 min⁻¹
[1]; Sprague Dawley, in vivo, 12 g/kg, in normal and cholestatic rats after oral administration of YCHD
  Tmax: ≤ 0.45 h
[1]; [9]
  Cmax: 524 ± 59.4 ng/mL
  Tmax: 0.3 h
  CL/F: 122 ± 22 mL/min/kg
  MRT inf: 3.36 h
  Vd/F: 21.1 ± 12 L/kg
  half-life: 1.9 ± 0.765 h
